From US8969395B2, “Triterpenoid derivatives useful as antiproliferative agents” (Universidade de Coimbra, priority 2009, dated 2015)

Key:
Jurkat (human leukemia) = experiment: Cytotoxic activity, XTT assay, Jurkat; format: cell-based; conditions: 72 h, mean ±SD
Summary of the method: (§1)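 HepG2, HeLa and Chang liver cells (8×10^3, 1×10^3, 5×10^3 cells/well) pre-grown 24 h, treated 72 h in triplicate (DMSO <0.1%), MTT 0.5 mg/ml 1 h, read 550 nm. Jurkat (5.5×10^3 cells/well) treated 72 h, XTT 4 h, read 450 nm. IC50 as mean±SD of at least three experiments.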

[1] = system: HepG2 (human hepatocellular carcinoma); experiment: Cytotoxic activity, MTT assay, HepG2; format: cell-based; conditions: 72 h, mean ±SD
Summary of the method: as §1

Jurkat cells = experiment: Apoptosis, Annexin V-FITC/PI FACS, Jurkat; format: cell-based, human; conditions: at IC50, 72 h, FIG. 8
Method: Assessment of apoptosis was performed 72 h after treatment with derivatives at their IC50. Briefly, the same number of HepG2, HeLa, Jurkat and Chang liver cells as in the cell cycle assay were treated with compounds 20, 44, 46 and betulinic acid 2, as described above. Cells were collected washed once in ice-sold binding buffer (10 mM HEPES/NaOH, pH 7.4, 140 mM NaCl, 2.5 mM CaCl2) and ressuspended in the same buffer (95 μl) at a maximum, of 8×10^5 cells/ml. Annexin V-FITC conjugate (1 μg/ml) was added and incubated for 30 min at room temperature in darkness. Just before FACS analysis, cells were stained with 20 μl of […]. Approximately 1×10^4 cells were analysed for each histogram and experiments were performed three times with triplicates per experiment. FACS analysis using Annexin V-FITC staining and PI accumulation was used to differentiate early apoptotic cells (Annexin V^+ and PI^−) from necrotic or late apoptotic cells (Annexin V^+ and PI^+). […] In comparison with untreated controls, compound 44 treatment of HepG2 cells generated apoptosis in 53% of cells (42% of early apoptosis and 11% of late apoptosis), compound 46 generated apoptosis in 38% of cells (28% of early apoptosis plus 10% late apoptosis) and compound 20 induced apoptosis in 29% of cells (22% of early apoptosis plus 7% late apoptosis) (FIG. 8).

[2] = system: HeLa (human cervical adenocarcinoma); experiment: Cytotoxic activity, MTT assay, HeLa; format: cell-based; conditions: 72 h, mean ±SD
[3] = system: Chang liver (human normal liver cells); experiment: Cytotoxic activity against non-tumoral cell line, MTT assay; format: cell-based; conditions: 72 h, mean ±SD
Method: The cytotoxic of compounds of formulas (I) and (II) 14-50 was assessed towards human cancer (HepG2, HeLa and Jurkat) cell lines (Table 3 below). Compounds presented on Table 4 were also tested against a non-tumoral liver cell line (Chang liver). The cell viability of HeLa, HepG2 and Chang liver cells was determined by the MTT assay. Briefly, exponentially growing cells were plated in 96-well plates at a density of 1×10^3, 8×10^3 and 5×10^3 cells/well respectively and incubated for 24 h before treatment. The grown medium was replaced with one contained the tested compounds dissolved in DMSO (final DMSO concentration <0.1%) at different concentrations, in triplicate wells, and cells were incubated for 72 h. After incubation with the compounds, the medium was removed and MTT solution (0.5 mg/ml, 100 μl) was added to each well and the plates were incubated again for 1 h. DMSO (100 μl) was then added to dissolve the formazan crystals and the plates were immediately read at 550 nm on an ELISA plate reader (Tecan Sunrise MR20-301, TECAN, Austria). For the Jurkat cells, the cell viability was determined by the XTT assay. Briefly, exponentially growing cells were plated in 96-well plates at a density of 5.5×10^3 cells/well, treated with different concentrations of compounds in triplicate and incubated for 72 h. After incubation with the compounds the XTT labeling mixture (100 μl) were added to each of the wells and after a 4 h incubation period the plates were read at 450 nm on an ELISA plate reader. […] Known for its cytotoxic activity, betulinic acid 2 was used as a positive control in this experimentation. […] All the IC50 results represent an average of a minimum of three experiments and were expressed as means±standard deviation (SD).

[4] = system: LNCaP (human prostate adenocarcinoma); experiment: Cytotoxic activity, LNCaP; format: cell-based; conditions: mean ±SD
Method: (§2) Compounds presented in Table 6 were also tested in the following cell lines: PC-3 (human prostate adenocarcinoma), LNCaP (human prostate adenocarcinoma), LAPC4 (human prostate adenocarcinoma) and HT-29 (human colon adenocarcinoma).

[5] = system: LAPC4 (human prostate adenocarcinoma); experiment: Cytotoxic activity, LAPC4; format: cell-based; conditions: mean ±SD
Method: as §2

[6] = system: PC-3 (human prostate adenocarcinoma); experiment: Cytotoxic activity, PC-3; format: cell-based; conditions: mean ±SD
Method: as §2

| Compound | IC50 (Jurkat (human leukemia)) [µM] | IC50 [1] [µM] | effectiveness at inducing apoptosis (Jurkat cells) | IC50 [2] [µM] | IC50 [3] [µM] | IC50 [4] [µM] | IC50 [5] [µM] | IC50 [6] [µM] |
| --- | --- | --- | --- | --- | --- | --- | --- | --- |
| C=C(C)[C@@H]1CC[C@]2(C(=O)n3ccnc3)CC[C@]3(C)[C@H](CC[C@@H]4[C@@]5(C)C=CC(=O)C(C)(C)[C@@H]5CC[C@]43C)[C@@H]12 [Compound 46, 28-(1H-imidazol-1-yl)-lup-1,20 (29)-dien-3,28-dione] | 2.3 ± 0.3 | 1.7 ± 0.2 | extremely effective | 3 ± 0.2 | 55.9 ± 4.6 | – | – | – |
| C=C(C)[C@@H]1CC[C@]2(C(=O)n3ccnc3)CC[C@]3(C)[C@H](CC[C@@H]4[C@@]5(C)CCC(=O)C(C)(C)[C@@H]5CC[C@]43C)[C@@H]12 [Compound 44, 28-(1H-imidazol-1-yl)-lup-20(29)-en-3,28-dione] | 1.4 ± 0.2 | 0.8 ± 0.05 | most effective | 2 ± 0.3 | 48.8 ± 2.8 | 13.7 ± 0.5 | 17.2 ± 2.3 | 6.9 ± 1.1 |
| C=C(C)[C@@H]1CC[C@]2(CO)CC[C@]3(C)[C@H](CC[C@@H]4[C@@]5(C)CC[C@H](OC(=O)n6ccnc6)C(C)(C)[C@@H]5CC[C@]43C)[C@@H]12 [Compound 20, 28-hydroxy-lup-20(29)-en-3β-yl-1H-imidazole-1-carboxylate] | 11.1 ± 1.3 | 2 ± 0.4 | extremely effective | 3 ± 0.2 | 60.7 ± 3.8 | 15 ± 1.8 | 16.4 ± 2.1 | 9.2 ± 0.7 |
